A short description of this data set: MicroPET imaging and organ uptake quantification after tail vein injection in normal nude mice. The format is in vivo, mouse. As for the experimental part:
All animal studies were approved by the University of Southern California Institutional Animal Care and Use Committee. Female athymic nude mice (about 4-6 weeks old, with a body weight of 20-25 g) were obtained from Harlan Laboratories (Livermore, Calif.). MicroPET scans were performed using an Inveon microPET scanner (Siemens Medical Solutions, Malvern, Pa., USA). A normal nude mouse was anesthetized using 2% isoflurane and injected with 1.3-2.5 MBq of [^18F]-ClFMBP via tail vein. At 0.5, 1, and 2 h post injection, static emission scans were acquired for 10 min. Raw PET images were reconstructed using 2D ordered subset expectation maximization (OSEM) algorithms with scatter, random and attenuation correction.
The 2D projection of PET images at 2 h post-injection is shown.
Accumulation of [^18F]-ClFMBP in other mouse organs was minimal.

Where [1] appears, read: microPET quantification, 2 h post-injection, tail vein, normal nude mice.

Regarding `O=P(O)(O)C([18F])(Cl)P(=O)(O)O` [[^18F]-ClFMBP, (chloro[^18F]-fluoromethylene)bisphosphonic acid], for the setting “0.5, 1 and 2 h post-injection, normal nude mice”, the “visibility of joints and bones in microPET images” value is listed as “clearly visible with high contrast to contralateral background”. The “uptake of radioactivity in the bladder” value (microPET images, normal nude mice) is recorded as “Predominant uptake”. Further, the “accumulation in other mouse organs” value (microPET quantification, 2 h post-injection) is “minimal”. Under setting [1], the uptake in bones came to 2.72±0.05 % ID/g, the uptake in joints amounted to 2.37±0.08 % ID/g, the “uptake in mouse kidneys” value came out at 0.16±0.08 % ID/g and the “uptake in mouse liver” value amounted to 0.21±0.04 % ID/g. Besides, the route of excretion result (suggested by bladder uptake in microPET images) was “mainly through the renal system”.

(Values after patent US20200206370A1, “18F-LABELED BISPH[…] PET IMAGING” (University of Southern California, priority 2016, published 2020).)
